Test results from PMC9127807, “Echinocandins Localized to the Target-Harboring Cell Surface Are Not Degraded but Those Entering the Vacuole Are” (ACS Chemical Biology, 2022).
≈ marks a conversion by molar mass, not a printed value. Starred links: 1 amine or outer side, 2 acyl side, 3 side chain; linkers in the order of their positions; H or OH if unused. Positions of bridges follow the written chain, without caps; N, C: chain ends. Non-standard residues stand in square brackets, D forms with d. Residues, ends and D or L forms follow the SMILES beside them. *: point of attachment. X1 = O=C([C@@H](N[*:1])[C@H](O)[C@@H](O)c1ccc(OCc2cn(CCCNc3ccc([N+](=O)[O-])c4nonc34)nn2)cc1)[*:2]; Orn(4R-OH,5R-OCH2CH2NMe3+) = C[N+](C)(C)CCO[C@@H](N[*:3])[C@H](O)C[C@H](N[*:1])C(=O)[*:2]; pTerphenylCO(4''-OnC5H11) = CCCCCOc1ccc(-c2ccc(-c3ccc(C(=O)*)cc3)cc2)cc1; Orn(4R-OH,5R-OH) = O=C([C@H](C[C@@H](O)[C@@H](O)N[*:3])N[*:1])[*:2]; hTyr(3S-OH,4S-OH) = N[C@H](C(=O)O)[C@H](O)[C@@H](O)c1ccc(O)cc1; Pro(3S-OH,4S-Me) = C[C@H]1CN[C@H](C(=O)O)[C@H]1O; Hyp = O=C(O)[C@@H]1C[C@@H](O)CN1

Legend:
C. glabrata TGL00275 = conditions: strain M, echinocandin resistant FKS mutation; YPAD broth, 24 h, 30 °C, OD600 reduced by ≥75%
Protocol: (§1) Candida strains were streaked from glycerol stock onto YPAD agar plates and grown for 24 h at 30 °C. Colonies were suspended in 1 mL of PBS and diluted to an optical density of 2 × 10^–4 at 600 nm (OD600) in flat-bottom 96-well microplates (Corning) with YPAD broth containing dilutions of each tested compound at concentrations ranging from 64 to 0.008 μg/mL in twofold dilutions. Control wells with yeast cells but no drug and blank wells that contained only YPAD were prepared. MIC values (Table S2) were determined after 24 h at 30 °C by measuring the OD600 using a plate reader (Infinite M200 PRO, Tecan). MIC values were defined as the point at which the OD600 was reduced by ≥75% compared to the no-drug wells. Each concentration was tested in triplicate, and the results were confirmed by two independent sets of experiments.

C. glabrata ATCC 66032 = conditions: strain J, echinocandin-susceptible; YPAD broth, 24 h, 30 °C, OD600 reduced by ≥75%
Protocol: as §1

C. glabrata ATCC 90030 = conditions: strain K, echinocandin-susceptible; YPAD broth, 24 h, 30 °C, OD600 reduced by ≥75%
Protocol: as §1

C. glabrata ATCC 2001 = conditions: strain I, echinocandin-susceptible; YPAD broth, 24 h, 30 °C, OD600 reduced by ≥75%
Protocol: as §1

C. albicans ATCC 90028 = conditions: strain E, echinocandin-susceptible; YPAD broth, 24 h, 30 °C, OD600 reduced by ≥75%
Protocol: as §1

C. glabrata TGL00277 = conditions: strain N, echinocandin resistant FKS mutation; YPAD broth, 24 h, 30 °C, OD600 reduced by ≥75%
Protocol: as §1

[1] = test system: C. albicans T-2068 (DP-C42); conditions: strain G, echinocandin resistant FKS mutation; YPAD broth, 24 h, 30 °C, OD600 reduced by ≥75%
Protocol: as §1

C. albicans ATCC 24433 = conditions: strain C, echinocandin-susceptible; YPAD broth, 24 h, 30 °C, OD600 reduced by ≥75%
Protocol: as §1

C. glabrata EF1620 = conditions: strain H, echinocandin-susceptible; YPAD broth, 24 h, 30 °C, OD600 reduced by ≥75%
Protocol: as §1

C. albicans ATCC 10231 = conditions: strain D, echinocandin-susceptible; YPAD broth, 24 h, 30 °C, OD600 reduced by ≥75%
Protocol: as §1

[2] = test system: C. albicans DPL1016 (DP-A15-10); conditions: strain F, echinocandin resistant FKS mutation; YPAD broth, 24 h, 30 °C, OD600 reduced by ≥75%
Protocol: as §1

C. glabrata T-192 (1775) = conditions: strain L, echinocandin-susceptible; YPAD broth, 24 h, 30 °C, OD600 reduced by ≥75%
Protocol: as §1

C. albicans SC5314 = conditions: strain A, echinocandin-susceptible; YPAD broth, 24 h, 30 °C, OD600 reduced by ≥75%; triplicate, two independent experiments
Protocol: as §1

C. albicans SN152 = assay: MIC broth double-dilution assay; format: cell-based, Candida albicans; conditions: strain B, echinocandin-susceptible; YPAD broth, 24 h, 30 °C, OD600 reduced by ≥75%
Protocol: as §1, with “Colonies” for “Candida strains were streaked from glycerol stock onto YPAD agar plates and grown for 24 h at 30 °C. Colonies”

C. albicans SC5314 cells = conditions: incubated with cells or lysates of C. albicans SC5314, 24 h, regardless of the media used (PBS, YPAD)
Protocol: C. albicans SC5314 cells were streaked from glycerol stocks onto YPAD agar plates and grown for 24 h at 30 °C. Colonies were grown in tubes in 3 mL of YPAD broth for 24 h at 30 °C with shaking. Cultures were diluted 1:50 and incubated in 5 mL of YPAD broth for 3 h at 30 °C with shaking until log-phase growth was observed. Cultures were then centrifuged (4000 rpm, 3 min), washed with PBS buffer, and resuspended in 1 mL of PBS buffer or YPAD. Cells were incubated with TMR-based probes (1 or 3) at a final concentration of 10 μM at 30 °C with shaking in the dark for 24 h. After washing three times with PBS, cells were resuspended in 75 μL of TNE buffer (10 mM Tris, 100 mM NaCl, and 1 mM ethylenediaminetetraacetic acid, pH 8.0) in a 1.5 mL Eppendorf tube, and 0.5 mm diameter beads were added to the yeast solution. The mixture was agitated on a vortex at maximum speed for 5 min. Next, 200 μL of 2% Triton X-100 in TNE buffer (v/v) was added to the agitated solution, and then the mixture was sonicated for 15 min. To clarify the yeast lysate, the mixture was centrifuged twice (16 000g, 20 min), and the supernatant was removed and filtered using a 0.22 μm syringe filter. The samples were analyzed using analytical reverse-phase HPLC at a 550 nm wavelength. HPLC conditions: mobile phase: acetonitrile in H2O (containing 0.1% trifluoroacetic acid (v/v)), gradient from 10 to 90%; flow rate: 1 mL/min; absorbance wavelength: 550 nm. Each sample was tested in two independent sets of experiments. The percentages of intact echinocandin were determined using the area calculation function available in the Hitachi Primaide Software and are presented as means (two replicates) ± standard deviation (SD).

[3] = incubation in human plasma for 44 h at 37 °C; cited from earlier work
From the text: Intending to develop echinocandins with improved chemical stability under physiological conditions, Cidara Therapeutics developed rezafungin (RZF), a novel ANF derivative with distinctive pharmacokinetic and pharmacodynamic profiles, which entered phase III trials in October 2018 (Figure 1).[18]−[21] […] Instead of the daily intravenous administration regime used for the other three echinocandins, RZF can be administered intravenous ...

| Structure (SMILES) | MIC (C. glabrata TGL00275) | MIC (C. glabrata ATCC 66032) | MIC (C. glabrata ATCC 90030) | MIC (C. glabrata ATCC 2001) | MIC (C. albicans ATCC 90028) | MIC (C. glabrata TGL00277) | MIC [1] | MIC (C. albicans ATCC 24433) | MIC (C. glabrata EF1620) | MIC (C. albicans ATCC 10231) | MIC [2] | MIC (C. glabrata T-192 (1775)) | MIC (C. albicans SC5314) | MIC (C. albicans SN152) | decomposition (C. albicans SC5314 cells) | percent of intact drug [3] |
| --- | --- | --- | --- | --- | --- | --- | --- | --- | --- | --- | --- | --- | --- | --- | --- | --- |
| CCCCCOc1ccc(-c2ccc(-c3ccc(C(=O)N[C@H]4C[C@@H](O)[C@@H](OCCc5cn(CCCNc6ccc([N+](=O)[O-])c7nonc67)nn5)NC(=O)[C@@H]5[C@@H](O)[C@@H](C)CN5C(=O)[C@H]([C@@H](C)O)NC(=O)[C@H]([C@H](O)[C@@H](O)c5ccc(O)cc5)NC(=O)[C@@H]5C[C@@H](O)CN5C(=O)[C@H]([C@@H](C)O)NC4=O)cc3)cc2)cc1 [Probe 4] | > 64 µg/mL | 0.5 µg/mL (≈ 0.344 µM) | 0.5 µg/mL (≈ 0.344 µM) | 0.5 µg/mL (≈ 0.344 µM) | 0.5 µg/mL (≈ 0.344 µM) | > 64 µg/mL | > 64 µg/mL | 0.25 µg/mL (≈ 0.172 µM) | 0.5 µg/mL (≈ 0.344 µM) | 0.25 µg/mL (≈ 0.172 µM) | > 64 µg/mL | 0.25 µg/mL (≈ 0.172 µM) | 0.25 µg/mL (≈ 0.172 µM) | 0.25 µg/mL (≈ 0.172 µM) |  |  |
| CCCCCOc1ccc(-c2ccc(-c3ccc(C(=O)N[C@H]4C[C@@H](O)[C@@H](OCCc5cn(CCCNC(=O)c6ccc(-c7c8ccc(=[N+](C)C)cc-8oc8cc(N(C)C)ccc78)c(C(=O)[O-])c6)nn5)NC(=O)[C@@H]5[C@@H](O)[C@@H](C)CN5C(=O)[C@H]([C@@H](C)O)NC(=O)[C@H]([C@H](O)[C@@H](O)c5ccc(O)cc5)NC(=O)[C@@H]5C[C@@H](O)CN5C(=O)[C@H]([C@@H](C)O)NC4=O)cc3)cc2)cc1 [Probe 3] |  |  |  |  |  |  |  |  |  |  |  |  |  |  | no significant decomposition |  |
| CCCCCOc1ccc(-c2ccc(-c3ccc(C(=O)N[C@H]4C[C@@H](O)[C@@H](O)NC(=O)[C@@H]5[C@@H](O)[C@@H](C)CN5C(=O)[C@H]([C@@H](C)O)NC(=O)[C@H]([C@H](O)[C@@H](O)c5ccc(O)cc5)NC(=O)[C@@H]5C[C@@H](O)CN5C(=O)[C@H]([C@@H](C)O)NC4=O)cc3)cc2)cc1 [ANF, anidulafungin, reference compound] ({pTerphenylCO(4''-OnC5H11)}-[Orn(4R-OH,5R-OH)]T[Hyp][hTyr(3S-OH,4S-OH)]T[Pro(3S-OH,4S-Me)]; lactam 1-C) | 4 µg/mL (≈ 3.51 µM) | 0.016 µg/mL (≈ 0.014 µM) | 0.016 µg/mL (≈ 0.014 µM) | 0.008 µg/mL (≈ 0.00702 µM) | 0.016 µg/mL (≈ 0.014 µM) | > 64 µg/mL | 4 µg/mL (≈ 3.51 µM) | 0.008 µg/mL (≈ 0.00702 µM) | 0.008 µg/mL (≈ 0.00702 µM) | 0.016 µg/mL (≈ 0.014 µM) | 4 µg/mL (≈ 3.51 µM) | 0.008 µg/mL (≈ 0.00702 µM) | 0.008 µg/mL (≈ 0.00702 µM) | 0.008 µg/mL (≈ 0.00702 µM) |  | 7% |
| CC[C@H](C)C[C@H](C)CCCCCCCCC(=O)N[C@H]1C[C@@H](O)[C@@H](NCCN)NC(=O)[C@@H]2[C@@H](O)CCN2C(=O)[C@H]([C@H](O)CCN)NC(=O)[C@H]([C@H](O)[C@@H](O)c2ccc(O)cc2)NC(=O)[C@@H]2C[C@@H](O)CN2C(=O)[C@H]([C@@H](C)O)NC1=O [CSF, caspofungin, reference compound] | 16 µg/mL (≈ 14.6 µM) | 0.063 µg/mL (≈ 0.0576 µM) | 0.125 µg/mL (≈ 0.114 µM) | 0.063 µg/mL (≈ 0.0576 µM) | 0.063 µg/mL (≈ 0.0576 µM) | > 64 µg/mL | 16 µg/mL (≈ 14.6 µM) | 0.031 µg/mL (≈ 0.0284 µM) | 0.031 µg/mL (≈ 0.0284 µM) | 0.063 µg/mL (≈ 0.0576 µM) | 32 µg/mL (≈ 29.3 µM) | 0.016 µg/mL (≈ 0.0146 µM) | 0.031 µg/mL (≈ 0.0284 µM) | 0.031 µg/mL (≈ 0.0284 µM) |  |  |
| CC[C@H](C)C[C@H](C)CCCCCCCCC(=O)N[C@H]1C[C@@H](O)[C@@H](NCCN)NC(=O)[C@@H]2[C@@H](O)CCN2C(=O)[C@H]([C@H](O)CCN)NC(=O)[C@H]([C@H](O)[C@@H](O)c2ccc(OCc3cn(CCCNc4ccc([N+](=O)[O-])c5nonc45)nn3)cc2)NC(=O)[C@@H]2C[C@@H](O)CN2C(=O)[C@H]([C@@H](C)O)NC1=O [Probe 2] | > 64 µg/mL | 4 µg/mL (≈ 2.87 µM) | 4 µg/mL (≈ 2.87 µM) | 2 µg/mL (≈ 1.43 µM) | 2 µg/mL (≈ 1.43 µM) | > 64 µg/mL | 64 µg/mL (≈ 45.9 µM) | 2 µg/mL (≈ 1.43 µM) | 4 µg/mL (≈ 2.87 µM) | 2 µg/mL (≈ 1.43 µM) | > 64 µg/mL | 2 µg/mL (≈ 1.43 µM) | 1 µg/mL (≈ 0.717 µM) | 1 µg/mL (≈ 0.717 µM) |  |  |
| CCCCCOc1ccc(-c2ccc(-c3ccc(C(=O)N[C@H]4C[C@@H](O)[C@@H](OCC[N+](C)(C)C)NC(=O)[C@@H]5[C@@H](O)[C@@H](C)CN5C(=O)[C@H]([C@@H](C)O)NC(=O)[C@H]([C@H](O)[C@@H](O)c5ccc(O)cc5)NC(=O)[C@@H]5C[C@@H](O)CN5C(=O)[C@H]([C@@H](C)O)NC4=O)cc3)cc2)cc1 [RZF, rezafungin, reference compound] ({pTerphenylCO(4''-OnC5H11)}-[Orn(4R-OH,5R-OCH2CH2NMe3+)]T[Hyp][hTyr(3S-OH,4S-OH)]T[Pro(3S-OH,4S-Me)]; lactam 1-C) | 8 µg/mL | 0.031 µg/mL | 0.031 µg/mL | 0.063 µg/mL | 0.031 µg/mL | > 64 µg/mL | 4 µg/mL | 0.031 µg/mL | 0.016 µg/mL | 0.063 µg/mL | 8 µg/mL | 0.016 µg/mL | 0.016 µg/mL | 0.031 µg/mL |  | 91% |
| CCCCCOc1ccc(-c2ccc(-c3ccc(C(=O)N[C@H]4C[C@@H](O)[C@@H](OCC[N+](C)(C)C)NC(=O)[C@@H]5[C@@H](O)[C@@H](C)CN5C(=O)[C@H]([C@@H](C)O)NC(=O)[C@H]([C@H](O)[C@@H](O)c5ccc(OCc6cn(CCCNc7ccc([N+](=O)[O-])c8nonc78)nn6)cc5)NC(=O)[C@@H]5C[C@@H](O)CN5C(=O)[C@H]([C@@H](C)O)NC4=O)cc3)cc2)cc1 [Probe 6] ({pTerphenylCO(4''-OnC5H11)}-[Orn(4R-OH,5R-OCH2CH2NMe3+)]T[Hyp][X1]T[Pro(3S-OH,4S-Me)]; lactam 1-C) | > 64 µg/mL | 1 µg/mL | 1 µg/mL | 1 µg/mL | 0.5 µg/mL | > 64 µg/mL | > 64 µg/mL | 0.5 µg/mL | 0.5 µg/mL | 0.5 µg/mL | > 64 µg/mL | 0.5 µg/mL | 0.5 µg/mL | 0.5 µg/mL |  |  |
